From paper PMC9250534, “Synthesis and direct assay of large macrocycle diversities by combinatorial late-stage modification at picomole scale” (Nature Communications, 2022) come the findings set out here.

Numbered stars: 1 amine (or outer) side, 2 acyl side, 3 side chain; on linkers, the order of the positions; unused ones are H or OH. Bridge positions count the residues as written; N and C are the ends. Square brackets hold non-standard residues; d marks the D form. Peptide text beside a SMILES is read from it. * marks the point of attachment. ξ: configuration not given here. Pro(cis-4-NH-(E)-Cinnamoyl) = O=C(/C=C/c1ccccc1)N[C@@H]1CN[C@H](C(=O)O)C1; Pro(cis-4-NHBenzoyl(4-Cl)) = O=C(N[C@@H]1CN[C@H](C(=O)O)C1)c1ccc(Cl)cc1; ξPro(4-NHCO(5-Cl-2-thienyl)) = O=C(NC1CNC(C(=O)O)C1)c1ccc(Cl)s1; Pyrazinoyl(5-oxo-4H) = O=C(c1c[nH]c(=O)cn1)*; 2Thenoyl(5-Cl) = O=C(c1ccc(Cl)s1)*; Benzoyl(4-Cl) = O=C(c1ccc(Cl)cc1)*; Cysteamide = C(CS[*:3])N[*:1]; X6 = O=C(c1ccc2nc[nH]c2c1)*; X9 = COc1ccc(CC(=O)*)cc1OC; Api = NC1(C(=O)O)CCNCC1; Dap = NC[C@H](N)C(=O)O; Mpa = O=C(O)CCS

This test deals with MDM2 (Homo sapiens, UniProt Q00987). Description: MDM2 binding screen: displacement of fluorescent p53 peptide probe FP53 (fluorescence polarization). Particulars: for fraction fluorescent probe displaced: 10 µM macrocycle concentration, crude acylated macrocycle (scaffold Mpa-AA1-AA2-AA3 x carboxylic acid), p53-based fluorescent peptide, human MDM2; for fraction fluorescent probe displaced, Screen: initial screen; for fraction fluorescent probe displaced, Screen / fraction fluorescent probe displaced, Replicate: crude macrocycle reactions. As for the experimental part:
We screened Library 2 in 384-microwell plates by dispensing the target protein MDM2 and reporter peptide into the wells containing the macrocycle reactions.
The products were screened for displacement of a p53-based fluorescent peptide from human MDM2. Final macrocycle concentrations were 10 µM. For each macrocycle, the MDM2 binding was measured once.
One fluorescence anisotropy reading was taken with a Tecan Infinite F200 Pro fluorescence plate reader (excitation at 485 nm, emission at 535 nm) at 25 °C. Data was collected and exported using the Tecan Infinite M200 Pro instrument software. The data was analyzed by Excel (version 2016).
On the technique in general: In fluorescence polarisation assays a small probe gives low polarisation when free and higher when bound to something large.

Chain of MDM2 (Q00987 whole entry, the tested form may be a part): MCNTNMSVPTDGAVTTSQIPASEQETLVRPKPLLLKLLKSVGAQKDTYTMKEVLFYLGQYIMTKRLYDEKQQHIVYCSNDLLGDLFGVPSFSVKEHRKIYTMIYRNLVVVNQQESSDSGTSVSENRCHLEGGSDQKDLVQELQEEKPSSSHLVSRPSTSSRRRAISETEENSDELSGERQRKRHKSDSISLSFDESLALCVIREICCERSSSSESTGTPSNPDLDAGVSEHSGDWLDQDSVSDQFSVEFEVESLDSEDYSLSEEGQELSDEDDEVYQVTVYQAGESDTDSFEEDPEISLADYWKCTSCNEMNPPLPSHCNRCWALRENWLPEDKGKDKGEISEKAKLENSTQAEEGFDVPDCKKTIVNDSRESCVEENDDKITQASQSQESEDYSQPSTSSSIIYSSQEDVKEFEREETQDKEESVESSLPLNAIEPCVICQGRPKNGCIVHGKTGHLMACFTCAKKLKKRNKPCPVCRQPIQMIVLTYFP

`O=C(NC[C@@H]1NC(=O)[C@@H]2CCCN2C(=O)CCSSCCNC(=O)[C@H](Cc2c[nH]c3ccccc23)NC1=O)c1ccc2nc[nH]c2c1` [X-B1-D3-W + A6] ([Mpa]P[Dap](X6)W-Cysteamide; disulfide 1-C): the “fraction fluorescent probe displaced” value was determined as 0.2779.
Turning to `O=C(NC[C@@H]1NC(=O)[C@@H]2CCCN2C(=O)CCSSCCNC(=O)[C@H](Cc2ccccc2)NC1=O)c1ccc(Cl)cc1` [X B1 D3 F Acid 25] ([Mpa]P[Dap](Benzoyl(4-Cl))F-Cysteamide; disulfide 1-C), under “Acid 25”, the “fraction fluorescent probe displaced, Screen” value amounted to 0.22 and the “fraction fluorescent probe displaced, Replicate” value is given as 0.22.
Regarding `COc1ccc(CC(=O)NC[C@@H]2NC(=O)[C@@H]3CCCN3C(=O)CCSSCCNC(=O)[C@H](Cc3ccccc3)NC2=O)cc1OC` [X-B1-D3-F + A37] ([Mpa]P[Dap](X9)F-Cysteamide; disulfide 1-C), the “fraction fluorescent probe displaced” value was 0.02818.
Turning to `O=C1CCSSCCNC(=O)C2(CCN(C(=O)c3ccc(Cl)s3)CC2)NC(=O)[C@H](Cc2ccccc2)NC(=O)CCN1` [X B2 F D6 Acid 14], under “Acid 14”, the “fraction fluorescent probe displaced, Screen” value is reported as 0.08 and the “fraction fluorescent probe displaced, Replicate” value was found to be 0.12.
With `O=C(N[C@H]1C[C@H]2C(=O)N[C@@H](Cc3ccccc3)C(=O)NCCSSCCC(=O)N3CCC[C@H]3C(=O)N2C1)c1ccc(Cl)cc1` [X B1 D5 F Acid 25] ([Mpa]P[Pro(cis-4-NHBenzoyl(4-Cl))]F-Cysteamide; disulfide 1-C), under “Acid 25”, the “fraction fluorescent probe displaced, Screen” value is on record as 0.16 and the “fraction fluorescent probe displaced, Replicate” value is listed as 0.15.
With `O=C(C=Cc1ccccc1)NC1CC2C(=O)NC(Cc3ccccc3)C(=O)NCCSSCCC(=O)NCCC(=O)N2C1` (stereo not drawn) [X B2 D5 F Acid 91], for the setting “Acid 91”, the “fraction fluorescent probe displaced, Screen” value was -0.17 and the “fraction fluorescent probe displaced, Replicate” value is recorded as -0.08.
For the compound `O=C1NC2(CCN(C(=O)c3ccc(Cl)s3)CC2)C(=O)NCCSSCCC(=O)N2CCC[C@H]2C(=O)N[C@H]1Cc1c[nH]c2ccccc12` [X B1 W D6 Acid 14] ([Mpa]PW[Api](2Thenoyl(5-Cl))-Cysteamide; disulfide 1-C), for the setting “Acid 14”, the “fraction fluorescent probe displaced, Screen” value is given as 0.20 and the “fraction fluorescent probe displaced, Replicate” value was found to be 0.12.
With `O=C1NC(Cc2ccccc2)C(=O)NCCSSCCC(=O)N2CCN(C(=O)c3ccc(Cl)cc3)CC2C(=O)NCc2cccc1c2` (stereo not drawn) [X D7 B5 F Acid 25], where the note is “Acid 25”, the “fraction fluorescent probe displaced, Screen” value is given as -0.04 and the “fraction fluorescent probe displaced, Replicate” value is listed as 0.12.
With `O=C1CCSSCCNC(=O)C2CCCN(C2)C(=O)C2(CCN(C(=O)c3ccc(Cl)s3)CC2)NC(=O)C(Cc2c[nH]c3ccccc23)N1` (stereo not drawn) [X W D6 B4 Acid 14], where the note is “Acid 14”, the “fraction fluorescent probe displaced, Screen” value amounted to 0.11 and the “fraction fluorescent probe displaced, Replicate” value was 0.38.
`O=C1CCNC(=O)C2(CCN(C(=O)c3ccc(Cl)cc3)CC2)NC(=O)[C@H](Cc2c[nH]c3ccccc23)NC(=O)CCSSCCN1` [X W D6 B2 Acid 25]: for the setting “Acid 25”, the “fraction fluorescent probe displaced, Screen” value is recorded as 0.0244 and the “fraction fluorescent probe displaced, Replicate” value is on record as 0.0465.
Consider `O=C(NC1CC2C(=O)N3CCCC3C(=O)NC(Cc3c[nH]c4ccccc34)C(=O)NCCSSCCC(=O)N2C1)c1ccc(Cl)s1` (stereo not drawn) [X D5 B1 W Acid 14] ([Mpa][ξPro(4-NHCO(5-Cl-2-thienyl))]PW-Cysteamide; disulfide 1-C; configuration not given here), for which, for the setting “Acid 14”, the “fraction fluorescent probe displaced, Screen” value is listed as 0.17 and the “fraction fluorescent probe displaced, Replicate” value came to 0.0465.
As for `O=C1CCSSCCNC(=O)C2(CCN(C(=O)c3ccc(Cl)s3)CC2)NC(=O)c2cccc(c2)CNC(=O)C(Cc2ccccc2)N1` (stereo not drawn) [X F B5 D6 Acid 14], under “Acid 14”, the “fraction fluorescent probe displaced, Screen” value was found to be 0.11 and the “fraction fluorescent probe displaced, Replicate” value worked out at 0.10.
On to `O=C1CCSSCCNC(=O)[C@@H]2CCCN2C(=O)[C@H](Cc2ccccc2)NC(=O)C2(CCN(C(=O)c3ccc(Cl)cc3)CC2)N1` [X D6 F B1 Acid 25] ([Mpa][Api](Benzoyl(4-Cl))FP-Cysteamide; disulfide 1-C), for which, for the setting “Acid 25”, the “fraction fluorescent probe displaced, Screen” value amounted to 0.15 and the “fraction fluorescent probe displaced, Replicate” value is 0.22.
With `O=C1CCNC(=O)C(Cc2ccccc2)NC(=O)CCSSCCNC(=O)C(CNC(=O)c2ccc(Cl)cc2)N1` (stereo not drawn) [X F B2 D3 Acid 25], where the note is “Acid 25”, the “fraction fluorescent probe displaced, Screen” value worked out at 0.22 and the “fraction fluorescent probe displaced, Replicate” value was found to be 0.17.
As for `O=C(/C=C/c1ccccc1)N[C@H]1C[C@H]2C(=O)N[C@@H](Cc3c[nH]c4ccccc34)C(=O)NCCSSCCC(=O)N3CCC[C@H]3C(=O)N2C1` [X B1 D5 W Acid 91] ([Mpa]P[Pro(cis-4-NH-(E)-Cinnamoyl)]W-Cysteamide; disulfide 1-C), under “Acid 91”, the “fraction fluorescent probe displaced, Screen” value was 0.03 and the “fraction fluorescent probe displaced, Replicate” value is on record as 0.04.
Turning to `O=C1CCSSCCNC(=O)[C@H](CNC(=O)c2ccc(Cl)cc2)NC(=O)[C@H](Cc2c[nH]c3ccccc23)NC(=O)c2cccc(c2)CN1` [X B5 W D3 Acid 25], under “Acid 25”, the “fraction fluorescent probe displaced, Screen” value was 0.15 and the “fraction fluorescent probe displaced, Replicate” value was found to be 0.12.
On to `O=C1CCNC(=O)C2(CCN(C(=O)C=Cc3ccccc3)CC2)NC(=O)C(Cc2c[nH]c3ccccc23)NC(=O)CCSSCCN1` (stereo not drawn) [X W D6 B2 Acid 91], for which, where the note is “Acid 91”, the “fraction fluorescent probe displaced, Screen” value is recorded as 0.32 and the “fraction fluorescent probe displaced, Replicate” value came out at 0.0168.
`O=C(NC[C@@H]1NC(=O)[C@@H]2CCCN2C(=O)CCSSCCNC(=O)[C@H](Cc2c[nH]c3ccccc23)NC1=O)c1ccc(Cl)s1` [X B1 D3 W Acid 14] ([Mpa]P[Dap](2Thenoyl(5-Cl))W-Cysteamide; disulfide 1-C): under “Acid 14”, the “fraction fluorescent probe displaced, Screen” value stood at 0.17 and the “fraction fluorescent probe displaced, Replicate” value came to 0.10.
With `O=C1CCSSCCNC(=O)C2(CCN(C(=O)c3ccc(Cl)cc3)CC2)NC(=O)CCNC(=O)[C@H](Cc2c[nH]c3ccccc23)N1` [X W B2 D6 Acid 25], for the setting “Acid 25”, the “fraction fluorescent probe displaced, Screen” value worked out at 0.09 and the “fraction fluorescent probe displaced, Replicate” value came out at 0.0465.
Consider `O=C1CCSSCCNC(=O)[C@H](Cc2ccccc2)NC(=O)[C@@H]2C[C@H](NC(=O)c3ccc(Cl)s3)CN2C(=O)CCN1` [X B2 D5 F Acid 14], for which, for the setting “Acid 14”, the “fraction fluorescent probe displaced, Screen” value was 0.16 and the “fraction fluorescent probe displaced, Replicate” value amounted to 0.05.
Consider `O=C(C=Cc1ccccc1)NC1CC2C(=O)NCc3cccc(c3)C(=O)NC(Cc3ccccc3)C(=O)NCCSSCCC(=O)N2C1` (stereo not drawn) [X D5 B5 F Acid 91], for which, under “Acid 91”, the “fraction fluorescent probe displaced, Screen” value was -0.05 and the “fraction fluorescent probe displaced, Replicate” value amounted to 0.07.
In the case of `O=C1CCNC(=O)[C@H](Cc2ccccc2)NC(=O)[C@H](CNC(=O)c2ccc(Cl)cc2)NC(=O)CCSSCCN1` [X D3 F B2 Acid 25], for the setting “Acid 25”, the “fraction fluorescent probe displaced, Screen” value is given as -0.00813 and the “fraction fluorescent probe displaced, Replicate” value is on record as 0.0211.
As for `O=C(NC[C@@H]1NC(=O)[C@@H]2CCCN2C(=O)CCSSCCNC(=O)[C@H](Cc2c[nH]c3ccccc23)NC1=O)c1c[nH]c(=O)cn1` [X-B1-D3-W + A9] ([Mpa]P[Dap](Pyrazinoyl(5-oxo-4H))W-Cysteamide; disulfide 1-C), the “fraction fluorescent probe displaced” value amounted to 0.06006.
As for `O=C1CCSSCCNC(=O)[C@H](Cc2c[nH]c3ccccc23)NC(=O)c2cccc(c2)CNC(=O)C2(CCN(C(=O)c3ccc(Cl)cc3)CC2)N1` [X D6 B5 W Acid 25], where the note is “Acid 25”, the “fraction fluorescent probe displaced, Screen” value is listed as 0.25 and the “fraction fluorescent probe displaced, Replicate” value is recorded as 0.22.
